Test results as given in PubChem BioAssay (NCI).
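Where inhibition never reached the appropriate level, the endpoint shown equals the highest concentration tested. Otherwise, values were interpolated linearly from a five-concentration, 48-hour dose response in 96-well plates. Definition used: TGI = concentration required for complete inhibition of growth.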

Assays:
Assay in all cases: NCI-60 cell line screen, 48 h
SF-268 CNS = tested on: SF-268 CNS
SF-295 CNS = tested on: SF-295 CNS
CAKI-1 renal = tested on: CAKI-1 renal
HCT-116 colon = tested on: HCT-116 colon
UACC-62 melanoma = tested on: UACC-62 melanoma
SN12C renal = tested on: SN12C renal
RXF 393 renal = tested on: RXF 393 renal
HCC-2998 colon = tested on: HCC-2998 colon
KM20L2 colon = tested on: KM20L2 colon
IGROV1 ovarian = tested on: IGROV1 ovarian
786-0 renal = tested on: 786-0 renal
K-562 leukemia = tested on: K-562 leukemia
SK-OV-3 ovarian = tested on: SK-OV-3 ovarian
M14 melanoma = tested on: M14 melanoma
NCI-H522 lung = tested on: NCI-H522 lung
MALME-3M melanoma = tested on: MALME-3M melanoma
CCRF-CEM leukemia = tested on: CCRF-CEM leukemia
RXF-631 renal = tested on: RXF-631 renal
TK-10 renal = tested on: TK-10 renal
HOP-62 NSCLC = tested on: HOP-62 NSCLC
SR leukemia = tested on: SR leukemia
OVCAR-3 ovarian = tested on: OVCAR-3 ovarian
LOX IMVI melanoma = tested on: LOX IMVI melanoma
SNB-19 CNS = tested on: SNB-19 CNS
SF-539 CNS = tested on: SF-539 CNS
NCI-H23 lung = tested on: NCI-H23 lung
DMS 114 small cell lung = tested on: DMS 114 small cell lung
SNB-78 CNS = tested on: SNB-78 CNS
RPMI-8226 leukemia = tested on: RPMI-8226 leukemia
MOLT-4 leukemia = tested on: MOLT-4 leukemia
DMS 273 small cell lung = tested on: DMS 273 small cell lung
A549 NSCLC = tested on: A549 NSCLC
HL-60(TB) leukemia = tested on: HL-60(TB) leukemia
DLD-1 colon = tested on: DLD-1 colon
SW-620 colon = tested on: SW-620 colon
NCI-H226 lung = tested on: NCI-H226 lung
SK-MEL-5 melanoma = tested on: SK-MEL-5 melanoma
UACC-257 melanoma = tested on: UACC-257 melanoma
HCT-15 colon = tested on: HCT-15 colon
HOP-92 NSCLC = tested on: HOP-92 NSCLC
SNB-75 CNS = tested on: SNB-75 CNS
U251 CNS = tested on: U251 CNS
ACHN renal = tested on: ACHN renal
M19-MEL melanoma = tested on: M19-MEL melanoma
NCI-H460 lung = tested on: NCI-H460 lung
HT29 colon = tested on: HT29 colon
SK-MEL-28 melanoma = tested on: SK-MEL-28 melanoma
OVCAR-5 ovarian = tested on: OVCAR-5 ovarian
OVCAR-8 ovarian = tested on: OVCAR-8 ovarian
COLO 205 colon = tested on: COLO 205 colon
KM12 colon = tested on: KM12 colon
LXFL 529 NSCLC = tested on: LXFL 529 NSCLC
UO-31 renal = tested on: UO-31 renal
OVCAR-4 ovarian = tested on: OVCAR-4 ovarian
EKVX NSCLC = tested on: EKVX NSCLC
SK-MEL-2 melanoma = tested on: SK-MEL-2 melanoma
HOP-18 NSCLC = tested on: HOP-18 NSCLC
A498 renal = tested on: A498 renal

SMILES: CC1(C)CCCC2(C)[C@@H]1CC[C@@]13CC(=O)[C@@](C)(CC[C@@H]21)C3 (stereo partly specified)
- TGI (SF-268 CNS): > 100 µM
- TGI (SF-295 CNS): > 100 µM
- TGI (CAKI-1 renal): > 100 µM
- TGI (HCT-116 colon): > 100 µM
- TGI (UACC-62 melanoma): > 100 µM
- TGI (SN12C renal): > 100 µM
- TGI (RXF 393 renal): 62.8 µM
- TGI (HCC-2998 colon): > 100 µM
- TGI (KM20L2 colon): > 100 µM
- TGI (IGROV1 ovarian): > 100 µM
- TGI (786-0 renal): > 100 µM
- TGI (K-562 leukemia): > 100 µM
- TGI (SK-OV-3 ovarian): > 100 µM
- TGI (M14 melanoma): > 100 µM
- TGI (NCI-H522 lung): 82.5 µM
- TGI (MALME-3M melanoma): > 100 µM
- TGI (CCRF-CEM leukemia): > 100 µM
- TGI (RXF-631 renal): > 100 µM
- TGI (TK-10 renal): > 100 µM
- TGI (HOP-62 NSCLC): > 100 µM
- TGI (SR leukemia): > 100 µM
- TGI (OVCAR-3 ovarian): > 100 µM
- TGI (LOX IMVI melanoma): > 100 µM
- TGI (SNB-19 CNS): > 100 µM
- TGI (SF-539 CNS): > 100 µM
- TGI (NCI-H23 lung): > 100 µM
- TGI (DMS 114 small cell lung): > 100 µM
- TGI (SNB-78 CNS): > 100 µM
- TGI (RPMI-8226 leukemia): > 100 µM
- TGI (MOLT-4 leukemia): > 100 µM
- TGI (DMS 273 small cell lung): > 100 µM
- TGI (A549 NSCLC): > 100 µM
- TGI (HL-60(TB) leukemia): > 100 µM
- TGI (DLD-1 colon): > 100 µM
- TGI (SW-620 colon): > 100 µM
- TGI (NCI-H226 lung): > 100 µM
- TGI (SK-MEL-5 melanoma): > 100 µM
- TGI (UACC-257 melanoma): 97.3 µM
- TGI (HCT-15 colon): > 100 µM
- TGI (HOP-92 NSCLC): > 100 µM
- TGI (SNB-75 CNS): > 100 µM
- TGI (U251 CNS): > 100 µM
- TGI (ACHN renal): > 100 µM
- TGI (M19-MEL melanoma): 89.6 µM
- TGI (NCI-H460 lung): > 100 µM
- TGI (HT29 colon): 76.3 µM
- TGI (SK-MEL-28 melanoma): > 100 µM
- TGI (OVCAR-5 ovarian): > 100 µM
- TGI (OVCAR-8 ovarian): > 100 µM
- TGI (COLO 205 colon): > 100 µM
- TGI (KM12 colon): > 100 µM
- TGI (LXFL 529 NSCLC): > 100 µM
- TGI (UO-31 renal): > 100 µM
- TGI (OVCAR-4 ovarian): > 100 µM

SMILES: COc1cc([C@@H]2c3cc4c(cc3[C@@H](NC(=O)c3cccc(C#N)c3)C3COC(=O)[C@@H]32)OCO4)cc(OC)c1O (stereo partly specified)
- TGI (SF-268 CNS): > 100 µM
- TGI (CAKI-1 renal): 16.3 µM
- TGI (HCT-116 colon): 12.7 µM
- TGI (EKVX NSCLC): 7.49 µM
- TGI (UACC-62 melanoma): 2.95 µM
- TGI (SN12C renal): 1.81 µM
- TGI (RXF 393 renal): 45.5 µM
- TGI (HCC-2998 colon): 6.34 µM
- TGI (KM20L2 colon): 7.53 µM
- TGI (IGROV1 ovarian): 6.54 µM
- TGI (786-0 renal): > 100 µM
- TGI (K-562 leukemia): > 100 µM
- TGI (M14 melanoma): > 100 µM
- TGI (NCI-H522 lung): 3.16 µM
- TGI (MALME-3M melanoma): 5.18 µM
- TGI (CCRF-CEM leukemia): > 100 µM
- TGI (RXF-631 renal): 14.6 µM
- TGI (TK-10 renal): 7.86 µM
- TGI (OVCAR-3 ovarian): 8.74 µM
- TGI (LOX IMVI melanoma): 10.5 µM
- TGI (SNB-19 CNS): 8.62 µM
- TGI (SF-539 CNS): 1.56 µM
- TGI (NCI-H23 lung): 0.811 µM
- TGI (SNB-78 CNS): > 100 µM
- TGI (RPMI-8226 leukemia): 29.4 µM
- TGI (MOLT-4 leukemia): 33 µM
- TGI (DMS 273 small cell lung): 13.8 µM
- TGI (A549 NSCLC): 2.51 µM
- TGI (HL-60(TB) leukemia): 12.3 µM
- TGI (DLD-1 colon): 16.8 µM
- TGI (SW-620 colon): 17.8 µM
- TGI (NCI-H226 lung): 0.67 µM
- TGI (SK-MEL-5 melanoma): 13.6 µM
- TGI (UACC-257 melanoma): > 100 µM
- TGI (HCT-15 colon): 24.5 µM
- TGI (HOP-92 NSCLC): 9.89 µM
- TGI (SNB-75 CNS): 4.85 µM
- TGI (U251 CNS): 1.81 µM
- TGI (ACHN renal): 1.98 µM
- TGI (SK-MEL-2 melanoma): 8.83 µM
- TGI (HOP-18 NSCLC): > 100 µM
- TGI (NCI-H460 lung): 2.53 µM
- TGI (HT29 colon): 11.5 µM
- TGI (SK-MEL-28 melanoma): > 100 µM
- TGI (OVCAR-5 ovarian): 25.5 µM
- TGI (OVCAR-8 ovarian): 14.6 µM
- TGI (COLO 205 colon): > 100 µM
- TGI (KM12 colon): 5.21 µM
- TGI (LXFL 529 NSCLC): > 100 µM
- TGI (UO-31 renal): 19.2 µM
- TGI (A498 renal): 4.98 µM
- TGI (OVCAR-4 ovarian): > 100 µM
